Test results as given in ChEMBL document CHEMBL1201862, “PubChem BioAssay data set” (2004).
The source made the active and inactive calls.

How the values were obtained:
Cytochrome P450 1A2 = biological target: T1, Cytochrome P450 1A2 (Homo sapiens, UniProt P05177);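 further: PubChem cytochrome P450 panel assay, CYP1A2 panel member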
T1 sequence (P05177 whole entry): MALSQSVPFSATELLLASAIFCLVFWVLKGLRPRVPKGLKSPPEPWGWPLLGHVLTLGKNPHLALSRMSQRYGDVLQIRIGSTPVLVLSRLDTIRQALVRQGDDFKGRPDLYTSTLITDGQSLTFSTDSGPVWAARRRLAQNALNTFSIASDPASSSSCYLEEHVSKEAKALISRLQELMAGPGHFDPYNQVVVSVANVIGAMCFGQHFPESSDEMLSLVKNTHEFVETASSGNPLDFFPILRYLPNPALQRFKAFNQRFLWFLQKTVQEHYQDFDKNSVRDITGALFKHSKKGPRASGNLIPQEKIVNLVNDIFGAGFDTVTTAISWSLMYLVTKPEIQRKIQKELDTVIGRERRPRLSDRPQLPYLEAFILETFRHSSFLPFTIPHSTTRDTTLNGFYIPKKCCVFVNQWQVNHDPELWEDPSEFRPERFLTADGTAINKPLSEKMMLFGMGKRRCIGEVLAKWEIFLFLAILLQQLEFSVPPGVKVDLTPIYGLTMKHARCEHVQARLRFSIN

Cytochrome P450 2C9 = Cytochrome P450 2C9 (Homo sapiens, UniProt P11712)
Cytochrome P450 3A4 = Cytochrome P450 3A4 (Homo sapiens, UniProt P08684); settings: Potency;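 further: confirmatory qHTS run detecting inhibitors and substrates of CYP3A4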
BJ [1] = assay: cytotoxicity toward BJ-TERT-LT-ST fibroblasts, dose response, cell-based, RAS-independent, luminescence (AID 1935); format: functional; settings: Homo sapiens;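 further: BJ fibroblasts immortalized with TERT plus LT and ST oncogenes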
BJ [2] = assay: cytotoxicity toward BJ-TERT fibroblasts, dose response, cell-based, RAS-independent, luminescence (AID 1933); format: functional; settings: Homo sapiens
BJ [3] = assay: cells; format: functional, cell-based; settings: Homo sapiens
[4] = cytotoxicity toward DRD oncogenic fibroblasts, dose response, cell-based, non-viral oncogenic, luminescence (AID 1934); format: functional; settings: Homo sapiens
[5] = biological target: Glyceraldehyde-3-phosphate dehydrogenase (Homo sapiens, UniProt P04406)
[6] = Luminescence Cell-Based Dose Confirmation HTS to Identify Activators of 5'UTR Stem-Loop Driven Alpha-Synuclein mRNA Translation in H4 Neuroglioblastoma Cells. [Related pubchem assays: 1829 (Project Summary), 1814 (Primary HTS)]; format: functional
H4 = assay: Luminescence Cell-Based Dose Response HTS to Identify Activators of 5'UTR Stem-Loop Driven Prion Protein mRNA Translation in H4 Neuroglioblastoma Cells. [Related pubchem assays: 1829 (Project Summary), 1814 (Primary HTS)]; format: functional; settings: Homo sapiens
[7] = Luminescence Cell-Based Dose Response HTS to Identify Activators of Luciferase Translation or Activity in H4 […] Cells. [Related pubchem assays: 1829 (Project Summary), 1814 (Primary HTS)]; format: functional
Cytochrome P450 2C19 = Cytochrome P450 2C19 (Homo sapiens, UniProt P33261); assay: Cytochrome panel assay with activity outcomes. Panel member name: p450-cyp2c19 Compounds with AC50 equal or less than 10 uM are considered active; format: functional; settings: read-out: AC50
Leucine aminopeptidase = biological target: T2, Leucine aminopeptidase (Plasmodium falciparum 3D7, UniProt Q8IL11); assay: P. falciparum M17LAP inhibitors, primary screen, biochemical, fluorogenic H-Leu-NHMec substrate, 1536-well (AID 1619); format: functional
T2 sequence (Q8IL11 whole entry): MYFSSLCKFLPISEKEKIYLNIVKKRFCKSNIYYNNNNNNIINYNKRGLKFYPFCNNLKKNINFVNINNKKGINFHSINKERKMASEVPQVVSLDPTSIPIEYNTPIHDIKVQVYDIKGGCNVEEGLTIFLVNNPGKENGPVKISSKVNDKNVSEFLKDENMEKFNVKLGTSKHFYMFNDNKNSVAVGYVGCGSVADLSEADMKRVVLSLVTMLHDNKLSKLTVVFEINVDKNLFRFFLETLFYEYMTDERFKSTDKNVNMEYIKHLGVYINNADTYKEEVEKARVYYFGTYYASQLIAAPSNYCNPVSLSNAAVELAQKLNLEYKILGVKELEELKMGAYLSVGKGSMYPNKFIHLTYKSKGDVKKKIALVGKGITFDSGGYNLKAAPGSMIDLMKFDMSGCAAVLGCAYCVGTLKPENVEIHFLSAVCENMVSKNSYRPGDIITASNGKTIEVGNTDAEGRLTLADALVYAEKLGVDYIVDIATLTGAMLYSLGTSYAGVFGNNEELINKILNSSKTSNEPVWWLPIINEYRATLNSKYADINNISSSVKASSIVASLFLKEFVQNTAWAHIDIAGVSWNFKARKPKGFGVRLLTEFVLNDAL

Chain of Cytochrome P450 2C9 (P11712 whole entry): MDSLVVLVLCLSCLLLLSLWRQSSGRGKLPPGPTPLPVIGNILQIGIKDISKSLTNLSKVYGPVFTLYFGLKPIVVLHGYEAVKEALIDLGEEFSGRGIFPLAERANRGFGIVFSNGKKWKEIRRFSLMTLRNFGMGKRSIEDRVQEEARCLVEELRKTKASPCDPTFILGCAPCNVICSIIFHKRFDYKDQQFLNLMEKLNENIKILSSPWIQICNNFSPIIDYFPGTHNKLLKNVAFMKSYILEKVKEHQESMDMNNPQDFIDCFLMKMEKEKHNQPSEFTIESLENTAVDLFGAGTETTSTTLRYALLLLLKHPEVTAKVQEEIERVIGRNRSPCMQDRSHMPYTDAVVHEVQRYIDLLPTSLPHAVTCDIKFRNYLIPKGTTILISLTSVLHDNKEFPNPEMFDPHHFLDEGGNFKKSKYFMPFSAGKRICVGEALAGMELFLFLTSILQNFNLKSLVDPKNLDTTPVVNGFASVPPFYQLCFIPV
Chain of Cytochrome P450 3A4 (P08684 whole entry): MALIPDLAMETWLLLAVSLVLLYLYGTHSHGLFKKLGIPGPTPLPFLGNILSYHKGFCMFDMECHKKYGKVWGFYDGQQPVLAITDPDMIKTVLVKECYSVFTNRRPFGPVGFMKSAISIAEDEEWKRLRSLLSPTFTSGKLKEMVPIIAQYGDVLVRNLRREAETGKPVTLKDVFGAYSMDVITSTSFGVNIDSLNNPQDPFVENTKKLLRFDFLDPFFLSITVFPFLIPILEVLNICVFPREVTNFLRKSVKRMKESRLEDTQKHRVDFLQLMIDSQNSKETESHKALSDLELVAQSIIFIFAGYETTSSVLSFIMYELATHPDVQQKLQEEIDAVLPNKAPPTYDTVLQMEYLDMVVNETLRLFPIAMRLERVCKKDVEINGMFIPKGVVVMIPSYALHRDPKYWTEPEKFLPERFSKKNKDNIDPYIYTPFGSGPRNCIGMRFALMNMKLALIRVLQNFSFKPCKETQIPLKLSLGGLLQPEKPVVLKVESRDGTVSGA
Chain of Glyceraldehyde-3-phosphate dehydrogenase (P04406 whole entry): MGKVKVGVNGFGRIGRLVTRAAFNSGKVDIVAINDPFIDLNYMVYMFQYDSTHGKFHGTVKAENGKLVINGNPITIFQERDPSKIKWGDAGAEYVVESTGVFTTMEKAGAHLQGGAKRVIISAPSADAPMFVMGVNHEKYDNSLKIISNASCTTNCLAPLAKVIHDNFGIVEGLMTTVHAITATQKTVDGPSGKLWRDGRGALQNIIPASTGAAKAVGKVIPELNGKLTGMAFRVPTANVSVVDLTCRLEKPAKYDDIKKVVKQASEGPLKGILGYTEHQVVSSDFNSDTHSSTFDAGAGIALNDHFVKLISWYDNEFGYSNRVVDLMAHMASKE
Chain of Cytochrome P450 2C19 (P33261 whole entry): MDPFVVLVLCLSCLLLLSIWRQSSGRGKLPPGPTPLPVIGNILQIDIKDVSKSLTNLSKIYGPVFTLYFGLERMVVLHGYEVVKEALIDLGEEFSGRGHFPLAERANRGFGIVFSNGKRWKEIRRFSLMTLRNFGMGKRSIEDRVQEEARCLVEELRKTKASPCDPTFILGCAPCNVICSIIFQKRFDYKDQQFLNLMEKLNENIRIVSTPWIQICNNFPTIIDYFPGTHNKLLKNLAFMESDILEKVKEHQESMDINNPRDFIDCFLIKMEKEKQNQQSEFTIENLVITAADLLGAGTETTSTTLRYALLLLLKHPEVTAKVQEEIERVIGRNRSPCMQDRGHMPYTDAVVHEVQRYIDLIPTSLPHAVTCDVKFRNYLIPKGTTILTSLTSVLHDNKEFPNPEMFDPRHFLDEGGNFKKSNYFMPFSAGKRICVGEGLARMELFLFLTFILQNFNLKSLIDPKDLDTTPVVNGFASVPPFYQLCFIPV

CCn1c(SCC(=O)c2ccc(OC)cc2)nnc1C1CC1
AC50 (Cytochrome P450 1A2): 17.8 µM (inconclusive) | AC50 (Cytochrome P450 2C9): inconclusive

CC1(C)C(O)CC(=O)[C@]2(C)C1CC(=O)[C@]1(C)C2CC[C@@]2(C)C(c3ccoc3)OC(=O)C3O[C@@]321 (stereo partly drawn)
AC50 (Cytochrome P450 3A4): 10 µM (inconclusive)

N#CCCn1c(=O)c(-c2ccc(Cl)cc2)nc2cnc(Oc3cccc(Cl)c3)nc21
AC50 (Cytochrome P450 2C9): inconclusive

Cc1ccc(Nc2nc(-c3cccnc3)nc3ccccc23)cc1
EC50 (BJ [1]): > 150 µM (inconclusive) | EC50 (BJ [2]): 28.5 µM (active) | EC50 (BJ [3]): 20.3 µM (active) | EC50 [4]: 15.8 µM (active)

CCCn1c(C)nc2c(NCCN3CCOCC3)nc(C)nc21
AC50 (Cytochrome P450 3A4): 20 µM (inconclusive)

CN1CCN(C2=C(Cl)C(=O)N(c3cccc(C(F)(F)F)c3)C2=O)CC1
IC50 [5]: > 50 µM (inconclusive)

O=C(c1ccc2c(c1)ncn2C1CCCCC1)N1CCC2(CC1)OCCO2
EC50 [6]: > 120 µM (not active) | EC50 (H4): > 120 µM (not active) | EC50 [7]: 6.5 µM (active)

Cc1nc(NC(=O)c2ccccc2)sc1-c1csc(Nc2ccc(F)cc2)n1
AC50 (Cytochrome P450 2C19): 0.355 µM (inconclusive) | AC50 (Cytochrome P450 1A2): 4.47 µM (inconclusive) | AC50 (Cytochrome P450 2C9): inconclusive

CC1(C)OC2CC3C4CC(F)C5=CC(=O)C=CC5(C)C4C(O)CC3(C)[C@]2(C(=O)CO)O1 (stereo partly drawn)
AC50 (Cytochrome P450 3A4): 39.8 µM (inconclusive)

CCC(=O)OC1CCC2C3CCc4cc(O)ccc4C3CC[C@]12C (stereo partly drawn)
AC50 (Cytochrome P450 3A4): 39.8 µM (inconclusive)

CCNc1ncc2nc(-c3ccc(OC)cc3)c(=O)n(Cc3ccc(F)cc3)c2n1
AC50 (Cytochrome P450 2C9): inconclusive

COc1cccc(Cn2c(=O)c(-c3cc(F)cc(F)c3)nc3cnc(N4CCOCC4)nc32)c1
AC50 (Cytochrome P450 2C9): inconclusive

CCSc1nnc(NC(=O)C2(C)Cc3ccccc3C(=O)O2)s1 (stereo not drawn)
IC50 (Leucine aminopeptidase): 33.6 µM (active)

N=C(Cc1cccs1)NOC(=O)COc1ccccc1Cl
EC50 [6]: 7.6 µM (active) | EC50 (H4): 46 µM (active) | EC50 [7]: 50.4 µM (active)

COC(=O)/C(=C1\OC(=O)C(c2ccccc2)C1=O)c1ccccc1 (stereo not drawn)
AC50 (Cytochrome P450 3A4): 39.8 µM (inconclusive)

CCCCOc1ccc(C2CCC(C(C)=O)C(C)C2)cc1 (stereo not drawn)
EC50 [6]: 0.284 µM (active) | EC50 (H4): 41.5 µM (active) | EC50 [7]: 26.8 µM (active)
